Here are results for ten compounds from patent US7838508B2, “4′-thio-L-xyloy furanosyl nucleosides, precursors thereof, preparation and use thereof” (priority 2000, dated 2010).

Where two headings read alike, the source gives them in different places.

In data set [1] the test system is CMV. Description: Antiviral (CMV) activity. The data set is classed as cell-based. Particulars: for IC50: Human betaherpesvirus 5, Antiviral (CMV) data, read-out: IC50: 50% Inhibitory Concentration of CMV; for TI: Therapeutic Index (TC50/IC50): TC50/IC50, CMV. The procedure:
(§1) The cell culture cytotoxicity of compounds of the present invention was determined against several different human cancel cell lines (see Table 1 below) and for antiviral activity (see Table 2 below).

Data set [2] can be described thus: Toxicity (cell viability) in antiviral (CMV) test. The data set is classed as cell-based. As to conditions: Antiviral (CMV) data; read-out: TC50: Toxic Concentration at 50% cell viability. The procedure: as §1
The test system of data set [3] is SNB-7 (CNS). Description: Cell culture cytotoxicity, SNB-7 (CNS). The data set is classed as cell-based, human. Here is the method:
as §1

Data set [4] has as its system DLD-1 (colon). Nature of the data set: Cell culture cytotoxicity, DLD-1 (colon). The data set is classed as cell-based, human. Here is the method:
as §1

In data set [5] the test system is SK-MEL-28 (melanoma). Description: Cell culture cytotoxicity, SK-MEL-28 (melanoma). Type of data set: cell-based, human. The procedure: as §1
For data set [6], the system named is NCI-H23 (lung). Nature of the data set: Cell culture cytotoxicity, NCI-H23 (lung). Type of data set: cell-based, human. The procedure:
as §1

Data set [7] has as its system CCRF-CEM (leukemia). Nature of the data set: Cell culture cytotoxicity, CCRF-CEM (leukemia). Type of data set: cell-based, human. As to conditions: read-out: Cytotoxicity IC50, CCRF-CEM (leukemia). The procedure: as §1
For data set [8], the system named is CAKI-1 (renal). Nature of the data set: Cell culture cytotoxicity, CAKI-1 (renal). Type of data set: cell-based, human. The procedure:
as §1

[9] abbreviates: SNB-7 human CNS cancer cell line, read-out: Cytotoxicity IC50, SNB-7 (CNS).
Setting [10] is: DLD-1 human colon cancer cell line, read-out: Cytotoxicity IC50, DLD-1 (colon).
[11] abbreviates: SK-MEL-28 human melanoma cell line, read-out: Cytotoxicity IC50, SK-MEL-28 (melanoma).
[12] abbreviates: NCI-H23 human lung cancer cell line, read-out: Cytotoxicity IC50, NCI-H23 (lung).
The mark [13] stands for this setting: CCRF-CEM human leukemia cell line.
[14] abbreviates: CAKI-1 human renal cancer cell line, read-out: Cytotoxicity IC50, CAKI-1 (renal).

On to `Nc1nc(O)c2ncn(COC(CO)CO)c2n1` [Ganciclovir, reference compound], for which, in data set [1], the IC50 was determined as 8.6 µM and the “TI: Therapeutic Index (TC50/IC50)” value was above 11.6. In data set [2], the CC50 is above 10 µM.
Consider `Nc1ccn([C@@H]2S[C@@H](CO)[C@@H](O)[C@@H]2O)c(=O)n1` [Compound 15α, 1-(4-thio-α-L-Xylofuranosyl)cytosine], for which the IC50 was above 100 µM in data set [3] (setting [9]); 0.026 µM in data set [1]; above 100 µM in data set [4] (setting [10]); above 100 µM in data set [5] (setting [11]); above 100 µM in data set [6] (setting [12]); 8 µM in data set [7] (setting [13]). Further, in data set [8] (setting [14]), the IC50 is above 100 µM. Moreover, the “TI: Therapeutic Index (TC50/IC50)” value in data set [1] is listed as above 384.6. The CC50 in data set [2] was above 10 µM.
As to `Nc1nc(Cl)nc2c1ncn2[C@H]1S[C@@H](CO)[C@@H](O)[C@@H]1O` [Compound 9β, 2-Chloro-9-(4-thio-β-L-xylofuranosyl)adenine], the IC50 in data set [3] (setting [9]), in data set [4] (setting [10]), in data set [5] (setting [11]), in data set [6] (setting [12]), in data set [7] (setting [13]) and in data set [8] (setting [14]) was above 100 µM throughout.
With `Nc1nc(Cl)nc2c1ncn2[C@@H]1S[C@@H](CO)[C@@H](O)[C@@H]1O` [Compound 9α, 2-Chloro-9-(4-thio-α-L-xylofuranosyl)adenine], the IC50 in data set [3] (setting [9]), in data set [4] (setting [10]), in data set [5] (setting [11]), in data set [6] (setting [12]), in data set [7] (setting [13]) and in data set [8] (setting [14]) was above 100 µM each time.
Regarding `Nc1nc(N)c2ncn([C@@H]3S[C@@H](CO)[C@@H](O)[C@@H]3O)c2n1` [Compound 12α, 9-(4-Thio-α-L-Xylofuranosyl)-9H-purine-2,6-diamine], the IC50 in data set [3] (setting [9]) was above 100 µM; in data set [1] it was 0.051 µM; in data set [4] (setting [10]), above 100 µM; in data set [5] (setting [11]) it was above 100 µM; in data set [6] (setting [12]), above 100 µM; in data set [7] (setting [13]), above 100 µM. Moreover, the IC50 in data set [8] (setting [14]) is above 100 µM. For the same compound, the “TI: Therapeutic Index (TC50/IC50)” value in data set [1] is listed as above 196.1. In addition, the CC50 in data set [2] was above 10 µM.
On to `Nc1ccn([C@H]2S[C@@H](CO)[C@@H](O)[C@@H]2O)c(=O)n1` [Compound 15β, 1-(4-thio-β-L-Xylofuranosyl)cytosine], for which the IC50 is 90 µM in data set [3] (setting [9]); 0.022 µM in data set [1]; above 100 µM in data set [4] (setting [10]); above 100 µM in data set [5] (setting [11]); above 100 µM in data set [6] (setting [12]); 11 µM in data set [7] (setting [13]). The IC50 in data set [8] (setting [14]) is above 100 µM. Also, the “TI: Therapeutic Index (TC50/IC50)” value in data set [1] was above 454.5. Also, the CC50 in data set [2] is above 10 µM.
`O=c1ccn(C2S[C@@H](CO)[C@@H](O)[C@@H]2O)c(=O)[nH]1` (stereo partly drawn) [Compound 19αβ, 1-(4-thioα,β-L-Xylofuranosyl)uracil]: the IC50 is above 100 µM in data set [3] (Homo sapiens, SNB-7, read-out: Cytotoxicity IC50, SNB-7 (CNS)); above 100 µM in data set [4] (Homo sapiens, DLD-1, read-out: Cytotoxicity IC50, DLD-1 (colon)); above 100 µM in data set [5] (Homo sapiens, SK-MEL-28, read-out: Cytotoxicity IC50, SK-MEL-28 (melanoma)); above 100 µM in data set [6] (Homo sapiens, NCI-H23, read-out: Cytotoxicity IC50, NCI-H23 (lung)); above 100 µM in data set [7] (Homo sapiens, CCRF-CEM); above 100 µM in data set [8] (Homo sapiens, CAKI-1, read-out: Cytotoxicity IC50, CAKI-1 (renal)).
In the case of `Nc1nc(N)c2ncn([C@H]3S[C@@H](CO)[C@@H](O)[C@@H]3O)c2n1` [Compound 12β, 9-(4-Thio-β-L-Xylofuranosyl)-9H-purine-2,6-diamine], the IC50 in data set [3] (setting [9]), in data set [4] (setting [10]), in data set [5] (setting [11]), in data set [6] (setting [12]), in data set [7] (setting [13]) and in data set [8] (setting [14]) was above 100 µM throughout.
For `Nc1nc2c(ncn2[C@H]2S[C@@H](CO)[C@@H](O)[C@@H]2O)c(=O)[nH]1` [Compound 13, 9-(4-Thio-β-L-xylofuranosyl)guanine], the IC50 in data set [3] (setting [9]), in data set [4] (setting [10]), in data set [5] (setting [11]), in data set [6] (setting [12]), in data set [7] (setting [13]) and in data set [8] (setting [14]) was above 100 µM in each case.
With “1-(4′-thio-α,β-L-Xylofuranosyl)thymine [Compound 17αβ]”, the IC50 in data set [3] (setting [9]), in data set [4] (setting [10]), in data set [5] (setting [11]), in data set [6] (setting [12]), in data set [7] (setting [13]) and in data set [8] (setting [14]) was above 100 µM each time.
